Data reported in patent US5428019A, “Bombesin analogs” (Merrell Dow Pharmaceuticals Inc., priority 1994, dated 1995).
Like-named read-outs stand apart in the source and are kept apart here. Where a SMILES comes first, the peptide text is derived from it. [ ]: non-standard residue; d: D form. The star is where a group is joined. Pheψ(CH2S)LeuNH2 = CC(C)C[C@H](SC[C@H](Cc1ccccc1)N*)C(N)=O; X1 = CC(C)C[C@@H](C(N)=O)N(C)C[C@H](Cc1ccccc1)N*; X2 = CC(C)C[C@@H](CN[C@@H](CC(C)C)C(N)=O)N*; pGlu = O=C1CC[C@@H](C(=O)O)N1

What was measured:
Bombesin Receptor = target: T1, Bombesin Receptor (Mus musculus, UniProt P21729); assay: Phosphatidylinositol turnover in chopped mouse pancreas; format: cell-based; parameters: key to PI Turnover Agonist: (+) represents agonist activity; (-) indicates no agonist activity; conditions: for PI Turnover % Inhibition: antagonist activity, referenced to the stimulation produced by 100 nM GRP
T1 construct: Pancreata from mice were chopped at 350 μm with a tissue chopper and pooled; from tissue; host or cells: chopped mouse pancreas
Procedure: Pancreata from mice were chopped at 350 μm with a tissue chopper and pooled. The chopped tissue was washed twice with oxygenated Krebs-Hepes, then incubated for 30 minutes in 37° C. oxygenated Krebs-Hepes buffer with fresh buffer after 15 minutes. The tissue was then incubated in this buffer containing 200 μCi of [^3 H] inositol at 37° C. for 1 hour. The tissue was then washed twice and incubated for another 30 minutes in oxygenated Krebs-Hepes (containing 10 mM Li^+) at 37° C. with a fresh buffer change after 15 minutes. Portions of the tissue mass (approximately 10 mg per assay tube) were then placed in Li^+ buffer with protease inhibitors, (40 μg/ml bacitracin, 4 μg/ml leupeptin, 4 μg/ml chymostatin, 8 μg/ml thiorphan), 0.1% BSA, and 0.1-10 μM peptide in a final volume of 250 μl. After 60 minutes at room temperature, the phosphatidylinositol turnover was terminated by the addition of 940 μl chloroform:methanol (1:2), followed by 310 μl chloroform, followed by 310 μl water. Each tube was then vortexed for 5 seconds and then centrifuged at 2500 x g for 10 minutes to separate the phases. 50 μl of the bottom phase (chloroform) was withdrawn from each tube and placed in a counting vial, dried, and counted in scintillation fluid. 900 μl of the top (aqueous) phase were then mixed with 2.1 ml water and loaded onto a 0.5 ml Biorad AG-1X8 (formate) ion exchange column. The material on the columns was washed in order with: 1) 10 ml of water 2) 5 ml of 5 mM disodium tetraborate/60 mM sodium formate 3) 10 ml of 1 M ammonium formate in 0.1 M formic acid. The final (third) wash was collected and one ml was mixed with 14 ml of Bio-Safe scintillant and counted. The ratio of these counts (total inositol phosphates) to the corresponding organic phase counts (inositol incorporated into the tissue) was then calculated for each sample. The ratios in the presence of test compound and/or standards were then compared to the ratios for control tubes (i.e., no stimulating agonist). The abilities of test compounds to stimulate phosphatidyl-inositol turnover were determined with the aid of a computer program. […] The ordinate (y-axis) indicates the observed PI turnover as a percentage of control. Values are mean±standard error of triplicate determinations.

bombesin/GRP receptor = target: T2, bombesin/GRP receptor (Mus musculus, UniProt P21729); assay: Competition for 125I-GRP binding to murine pancreatic membranes
T2 construct: The pancreata from one or more mice were pooled and homogenized; from tissue; host or cells: mouse pancreas membranes
Procedure: The pancreata from one or more mice were pooled and homogenized in 50 mM HEPES (pH 7.4) containing 120 mM NaCl, 5 mM KCl, 1 mM EDTA and protease inhibitors (1 μg/ml aprotinin, leupeptin, pepstatin; 4 μg/ml bacitracin, antipain, bestatin; 100 μM PMSF) at 4° C. and centrifuged at 37,500 X g for 15 minutes. The pellet was resuspended in 50 mM HEPES (pH 7.4) containing 10 mM EDTA, 300 mM KCl, and protease inhibitors, and then incubated for 30 minutes at 4° C. The suspension was centrifuged as above and the pellet was washed two times in 50 mM HEPES (pH 7.4) containing 8 μg/ml thiorphan and protease inhibitors, and again centrifuged. The tissue was then resuspended in incubation buffer (1 ml per 4 mg pancreas) and incubated for 15 minutes at room temperature, then 250 μl were added to each assay tube to commence the assay. […] The assay was allowed to proceed to equilibrium for 90 minutes at room temperature. After this time, the contents of each tube was rapidly filtered over Whatman GF/B filters presoaked in 0.1% polyethyleneimine and the filters were rapidly washed three times with ice-cold 50 mM HEPES (pH 7.4). Filter-bound radioactivity was quantitated in a gamma counter. […] Affinity and maximal binding were calculated with LIGAND (Biosoft, Cambridge, UK) (FIGS. 1 and FIG. 2)
The abscissa (x-axis) logarithmically indicates the concentration of agonists being tested.

[1] = tested on: cell surface receptors that bind bombesin; conditions: background section; read-out: KD of high-affinity cell surface receptors that bind bombesin; cited from earlier work
[2] = competitive binding, mouse pancreas, averages of multiple experiments, read-out: Kd

T1 sequence (P21729 whole entry): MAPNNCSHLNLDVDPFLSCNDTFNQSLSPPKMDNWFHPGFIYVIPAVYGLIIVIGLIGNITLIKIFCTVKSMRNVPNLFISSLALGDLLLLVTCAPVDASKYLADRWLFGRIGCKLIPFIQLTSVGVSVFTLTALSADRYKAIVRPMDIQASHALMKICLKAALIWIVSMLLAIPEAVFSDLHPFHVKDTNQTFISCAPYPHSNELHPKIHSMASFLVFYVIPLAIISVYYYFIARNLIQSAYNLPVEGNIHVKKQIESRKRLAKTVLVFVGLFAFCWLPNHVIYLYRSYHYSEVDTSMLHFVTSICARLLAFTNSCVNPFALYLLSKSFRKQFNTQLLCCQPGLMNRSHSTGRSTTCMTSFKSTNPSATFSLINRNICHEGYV
T2 sequence (P21729 whole entry): as above

In the case of `CSCC[C@H](NC(=O)[C@H](Cc1ccccc1)NC(=O)[C@H](Cc1c[nH]cn1)NC(=O)CNC(=O)[C@@H](NC(=O)[C@H](C)NC(=O)[C@H](Cc1c[nH]c2ccccc12)NC(=O)[C@H](CCC(N)=O)NC(=O)[C@@H]1CCC(=O)N1)C(C)C)C(N)=O` [Litorin, pGlu--Gin--Trp--Ala--Val--Gly--His--Phe--Met--NH2, reference compound], the “PI Turnover Agonist” value (Bombesin Receptor) is reported as “+”, the Kd (bombesin/GRP receptor; [2]) is reported as 0.075 nM and the Kd (bombesin/GRP receptor; triplicate, in the presence of 40 pM 125I-GRP, LIGAND fit, read-out: Kd, single class of sites (FIG. 2)) is reported as 0.1 nM.
With `CC(C)C[C@@H](C(N)=O)[S+]([O-])C[C@H](Cc1ccccc1)NC(=O)[C@H](Cc1c[nH]cn1)NC(=O)CNC(=O)[C@@H](NC(=O)[C@H](C)NC(=O)[C@H](Cc1c[nH]c2ccccc12)NC(=O)[C@H](CCC(N)=O)NC(=O)[C@@H]1CCC(=O)N1)C(C)C` (single isomer, unassigned) [[Phe^8 .psi.[CH2 S(O)]Leu^9]litorin I, pGlu--Gln--Trp--Ala--Val--Gly--His--Phe.psi.[CH2 S(O)]Leu--NH2] the Kd (bombesin/GRP receptor; [2]) was 1.8 nM.
In the case of `CSCC[C@H](NC(=O)[C@H](CC(C)C)NC(=O)[C@H](Cc1cnc[nH]1)NC(=O)CNC(=O)[C@@H](NC(=O)[C@H](C)NC(=O)[C@H](Cc1c[nH]c2ccccc12)NC(=O)[C@H](CCC(N)=O)NC(=O)[C@H](CC(N)=O)NC(=O)CNC(=O)[C@H](CC(C)C)NC(=O)[C@H](CCCN=C(N)N)NC(=O)[C@H](CCC(N)=O)NC(=O)[C@@H]1CCC(=O)N1)C(C)C)C(N)=O` [Bombesin, pGlu--Gln--Arg--Leu--Gly--Asn--Gln--Trp--Ala--Val--Gly--His--Phe--Met--NH2], the Kd [1] is given as 1 nM and the “PI Turnover Agonist” value (Bombesin Receptor) is given as “+”.
For `CC(C)C[C@H](NC(=O)[C@H](CCCNC(=N)N)NC(=O)[C@H](CCC(N)=O)NC(=O)[C@@H]1CCC(=O)N1)C(=O)NCC(=O)N[C@@H](CC(N)=O)C(=O)N[C@@H](CCC(N)=O)C(=O)N[C@@H](Cc1c[nH]c2ccccc12)C(=O)N[C@@H](C)C(=O)N[C@H](C(=O)NCC(=O)N[C@@H](Cc1c[nH]cn1)C(=O)N[C@H](CS[C@@H](CC(C)C)C(N)=O)Cc1ccccc1)C(C)C` [[Phe^13 .psi.[CH2 S]Leu^14 bombesin, pGlu--Gln--Arg--Leu--Gly--Asn--Gln--Trp--Ala--Val--Gly--His--Phe.psi.[CH2 S]Leu--NH2] ([pGlu]QRLGNQWAVGH-{Pheψ(CH2S)LeuNH2}), the “PI Turnover % Inhibition” value (Bombesin Receptor) was 54% and the Kd (bombesin/GRP receptor; Kd (nM), competitive binding, mouse pancreas, averages of multiple experiments) was 2.8 nM.
For `CC(C)C[C@@H](C(N)=O)N(C)C[C@H](Cc1ccccc1)NC(=O)[C@H](Cc1c[nH]cn1)NC(=O)CNC(=O)[C@@H](NC(=O)[C@H](C)NC(=O)[C@H](Cc1c[nH]c2ccccc12)NC(=O)[C@H](CCC(N)=O)NC(=O)[C@@H]1CCC(=O)N1)C(C)C` [[Phe^8 .psi.[CH2 N(CH3)]Leu^9]litorin] ([pGlu]QWAVGH-X1), the “PI Turnover Agonist” value (Bombesin Receptor) was “+”, the “PI Turnover % Inhibition” value (Bombesin Receptor) was -16% and the “PI turnover as a percentage of control (FIG. 3)” value (Bombesin Receptor; triplicate determinations) was “statistically significant (P<0.005) increase in PI turnover”. For the same molecule, the Kd (bombesin/GRP receptor; duplicate, 20 pM 125I-GRP, two-site fit, read-out: Kd, high affinity class of sites (FIG. 2)) was 0.08 nM, the Kd (bombesin/GRP receptor; duplicate, 20 pM 125I-GRP, two-site fit, read-out: Kd, low affinity class of sites (FIG. 2)) was 16 nM and the Kd (bombesin/GRP receptor; first of two values in the cell, mouse pancreas, averages of multiple experiments, read-out: Kd (nM), high affinity class of sites) was 0.019 nM. The Kd (bombesin/GRP receptor; second of two values in the cell, mouse pancreas, averages of multiple experiments, read-out: Kd (nM), low affinity class of sites) was 23 nM and the “receptors in the high affinity state (FIG. 2)” value (bombesin/GRP receptor; two-site fit, 20 pM 125I-GRP) was 20%.
In the case of `CC(C)C[C@@H](CN[C@@H](CC(C)C)C(N)=O)NC(=O)[C@H](Cc1cnc[nH]1)NC(=O)CNC(=O)[C@@H](NC(=O)[C@H](C)NC(=O)[C@H](Cc1c[nH]c2ccccc12)NC(=O)[C@H](CCC(N)=O)NC(=O)[C@H](CC(N)=O)NC(=O)CNC(=O)[C@H](CC(C)C)NC(=O)[C@H](CCCN=C(N)N)NC(=O)[C@H](CCC(N)=O)NC(=O)[C@@H]1CCC(=O)N1)C(C)C` [[Leu^13 .psi.{CH2 NH]Leu^14]bombesin, pGlu--Gln--Arg--Leu--Gly--Asn--Gln--Trp--Ala--Val--Gly--His--Leu.psi.[CH2 N]Leu--NH2, reference compound] ([pGlu]QRLGNQWAVGH-X2), the Kd (bombesin/GRP receptor; [2]) is reported as 8 nM.
Work on `CC(C)C[C@@H](C(N)=O)[S+]([O-])C[C@H](Cc1ccccc1)NC(=O)[C@H](Cc1c[nH]cn1)NC(=O)CNC(=O)[C@@H](NC(=O)[C@H](C)NC(=O)[C@H](Cc1c[nH]c2ccccc12)NC(=O)[C@H](CCC(N)=O)NC(=O)[C@@H]1CCC(=O)N1)C(C)C` (single isomer, unassigned) [[Phe^8 .psi.[CH2 S(O)]Leu^9]litorin II, pGlu--Gln--Trp--Ala--Val--Gly--His--Phe.psi.[CH2 S(O)]Leu--NH2] yielded a Kd (bombesin/GRP receptor; [2]) of 1 nM.
